Results reported in publication PMC10318456, “Selective inhibitors of the PSEN1–gamma-secretase complex” (The Journal of Biological Chemistry, 2023).
Where “and” joins values, the source holds several entries; their conditions need not be identical. Equal entries are not always repeated.

Legend:
[1] = tested on: PSEN1 versus PSEN2 γ-secretase complexes; assay: Comparison of the four MEF cell lines: selectivity between γ-secretase complexes (IC50 ratios); assay type: cell-based, human
Excerpt: Mouse embryonic fibroblast (MEF) cells deficient for the Psen and Aph1 genes (Psen1/2^−/−, Aph1ABC^−/−) were reconstituted with human PSEN1 or PSEN2 and with human APH1A or APH1B to generate four independent cell lines, each constitutively expressing exclusively one type of γ-secretase complex (Fig. S1A) ([19]). A human APP-C99-GFP reporter was introduced to enable the measurement of Aβ peptides in the conditioned media of the cells to monitor γ-secretase activity. The assay was established in a 96-well format.
GraphPad Prism 7 software was used to generate inhibition fitting curves (four-parameter logistic equation, nonlinear regression) and to determine IC50 and 95% CI values (Fig. S2). Selectivity values (IC50 ratios of PSEN1 versus PSEN2) above 10 are highlighted in red.
The number of plated cells and incubation times were determined in respect to linearity of Aβ peptide secretion, the dynamic range of Aβ peptide quantification in the medium, and sensitivity to dimethylsulfoxide (DMSO). […] MEF cells were plated in DMEM F12 supplemented with 10% FCS at 10,000 cells per well in 96-well clear bottom plates in the late afternoon and cultured for 16 h at 37 °C, 5% CO2. In the morning of the second day, the medium was replaced with 60 μl of DMEM/F12 supplemented with 2% FCS, and GSI or DMSO (controls) were added. Compounds were tested in serial dilutions with concentrations ranging from […] to 0.1 nM with 3-fold changes. The final concentration of DMSO in all wells was 0.2%. Plates were put in the incubator again at 37 °C, 5% CO2. After 8 h, the culture media were collected, and 30 μl was used to measure Aβ40 peptides. The cell viability was assessed using the CellTiter-Glo Luminescent assay (Promega) that measures ATP production. All screens were performed at one site, and reported IC50 values throughout the manuscript are from this site (Beerse) unless otherwise indicated.
GraphPad Prism 7 software (https://www.graphpad.com) was used to generate inhibition fitting curves (four-parameter logistic equation, nonlinear regression) and to determine IC50 values and 95% CI.

[2] = target: T1, PSEN1 L150A–APH1A γ-secretase complex (Homo sapiens, UniProt P49768, L150A); assay: Aβ40 secretion, MEF cell pool restored with PSEN1 L150A–APH1A; assay type: cell-based; settings: decimal comma; for IC50: PSEN1 L150A (TM2)–APH1A cell pool, N = 3 to 4, mean (95% CI)
T1 construct: expressed in transfected cells; host or cells: Psen1/2 double KO/Aph1ABC triple KO MEFs, pools without clonal selection
Method: (§1) We turned to experimental site–directed mutagenesis and selected a series of amino acids (Fig. 3) in the entrance channel for mutation to alanine. […] More importantly, they were all enzymatically active as shown by the secretion of Aβ40 in the supernatants of the cell cultures (Fig. 3B).
(§2) Conditional Psen1/2 double KO mice were crossed with conditional Aph1ABC triple KO mice ([29], [52], [58], [59]). At embryonic day 7.5, embryos were dissected and dissociated, and cells were plated in the presence of Dulbecco’s modified Eagle’s medium (DMEM)/F12 50% fetal calf serum (FCS) (Invitrogen). Primary MEFs were immortalized by transduction with LargeT antigen. Psen1/2 double KO/Aph1ABC triple KO MEFs were generated by transduction with a Cre-GFP–expressing adenoviral vector, and GFP-positive MEFs were sorted by fluorescence-activated cell sorting analysis. Psen1/2 Aph1ABC-deficient MEFs were maintained in DMEM/f12 10% FCS. To rescue γ-secretase expression, Psen1/2 double KO/Aph1ABC triple KO MEFs were transduced using Murine Stem Cell Virus retroviral vector system (pMSCV) viral vectors (Clontech) containing the human coding sequences of the different PSEN and APH1 homologs and the zeocin selection marker. An Internal Ribosome Entry Site sequence was cloned between the coding sequences for PSEN and APH1 to ensure co-expression of both proteins. Stable transfected cell lines were selected using 500-μg/ml zeocin (Invitrogen). Four different combinations were made: PSEN1 and APH1AL, PSEN1 and APH1B, PSEN2 and APH1AL, and PSEN2 and APH1B. These cell lines were transduced with pMSCV viral vectors (Clontech) expressing APP-C99-GFP-puromycin. […]
(§3) The number of plated cells and incubation times were determined in respect to linearity of Aβ peptide secretion, the dynamic range of Aβ peptide quantification in the medium, and sensitivity to dimethylsulfoxide (DMSO). […] The cell viability was assessed using the CellTiter-Glo Luminescent assay (Promega) that measures ATP production. […] We however measured five compounds at the Leuven site and noticed that absolute IC50 values were different (Fig. S2). […]

[3] = target: T2, PSEN1 S170A–APH1A γ-secretase complex (Homo sapiens, UniProt P49768, S170A); assay: Aβ40 secretion, MEF cell pool restored with PSEN1 S170A–APH1A; assay type: cell-based; settings: decimal comma; for IC50: PSEN1 S170A (TM3)–APH1A cell pool, N = 3 to 4, mean (95% CI)
T2 construct: expressed in transfected cells; host or cells: Psen1/2 double KO/Aph1ABC triple KO MEFs, pools without clonal selection
Method: as §1, §2, §3

[4] = target: T3, PSEN1 I229A–APH1A γ-secretase complex (Homo sapiens, UniProt P49768, I229A); assay: Aβ40 secretion, MEF cell pool restored with PSEN1 I229A–APH1A; assay type: cell-based; settings: decimal comma; for IC50: PSEN1 I229A (TM5)–APH1A cell pool, N = 3 to 4, mean (95% CI); for IC50 fold change to WT: PSEN1 I229A–APH1A cell pool
T3 construct: expressed in transfected cells; host or cells: Psen1/2 double KO/Aph1ABC triple KO MEFs, pools without clonal selection
Method: as §1
Conditional Psen1/2 double KO mice were crossed with conditional Aph1ABC triple KO mice ([29], [52], [58], [59]). At embryonic day 7.5, embryos were dissected and dissociated, and cells were plated in the presence of Dulbecco’s modified Eagle’s medium (DMEM)/F12 50% fetal calf serum (FCS) (Invitrogen). Primary MEFs were immortalized by transduction with LargeT antigen. Psen1/2 double KO/Aph1ABC triple KO MEFs were generated by transduction with a Cre-GFP–expressing adenoviral vector, and GFP-positive MEFs were sorted by fluorescence-activated cell sorting analysis. Psen1/2 Aph1ABC-deficient MEFs were maintained in DMEM/f12 10% FCS. To rescue γ-secretase expression, Psen1/2 double KO/Aph1ABC triple KO MEFs were transduced using Murine Stem Cell Virus retroviral vector system (pMSCV) viral vectors (Clontech) containing the human coding sequences of the different PSEN and APH1 homologs and the zeocin selection marker. An Internal Ribosome Entry Site sequence was cloned between the coding sequences for PSEN and APH1 to ensure co-expression of both proteins. Stable transfected cell lines were selected using 500-μg/ml zeocin (Invitrogen). Four different combinations were made: PSEN1 and APH1AL, PSEN1 and APH1B, PSEN2 and APH1AL, and PSEN2 and APH1B. These cell lines were transduced with pMSCV viral vectors (Clontech) expressing APP-C99-GFP-puromycin. After puromycin selection (5 μg/ml), GFP-positive cells were selected through FACS sorting. For the alanine mutagenesis experiment, pMSCV PSEN1-APH1A viral vectors were generated by using a long PCR-based QuikChange strategy (Stratagene). Stable cell lines without clonal selection were generated for each mutant as described above. All cell lines were regularly tested for the absence of mycoplasma and used for maximum 20 passages in culture.
as §3, with “(DMSO). […] MEF cells were plated in DMEM F12 supplemented with 10% FCS at 10,000 cells per well in 96-well clear bottom plates in the late afternoon and cultured for 16 h at 37 °C, 5% CO2.” for “(DMSO).”

Row | SMILES | selectivity for PSEN1 complexes versus PSEN2 complexes ([1]; IC50 ratios of PSEN1 versus PSEN2, MEF cell lines) | selectivity PSEN1–APH1B versus PSEN1–APH1A ([1]; MEF cell lines) | IC50 [2] | IC50 [3] | IC50 [4] | IC50 fold change to WT [4] | selectivity toward the different γ-secretase complexes ([1]; four MEF cell lines) | IC50 fold change to WT ([2]; PSEN1 L150A–APH1A cell pool) | IC50 fold change to WT ([3]; PSEN1 S170A–APH1A cell pool)
1 | O=S(=O)(c1ccc(Cl)cc1)N1[C@H]2CC[C@@H]([C@H]1c1ccc(C(F)(F)F)cc1)[C@@H](O)C2 [(+)-9b] | > 250 fold | 4 fold | 1.09 µM | 0.132 µM | 0.042 µM | 1,440 fold | – | – | –
2 | C[C@H](NC(=O)Cc1cc(F)cc(F)c1)C(=O)N[C@H](C(=O)OC(C)(C)C)c1ccccc1 [DAPT] | – | – | 0.879 µM | 0.139 µM | 0.334 µM | 1,980 fold | < 10 fold | 5,207 fold and > 3 fold | 0,821 fold
